Assay results reported in patent US5441883A, “A3 adenosine receptor, DNA, and uses” (priority 1993, dated 1995).
Where two headings read alike, the source gives them in different places.

Columns and labels:
A3 adenosine receptor [1] = target: T1, A3 adenosine receptor (Rattus norvegicus, UniProt P28647); assay: biochemical; format: binding; settings: for IC50: 0.5 nM [125I]APNEA; for pharmacological profile of inhibition of [125I]APNEA binding: rank order; for inhibition at 100 µM: read-out: inhibition of specific [125I]APNEA binding; for inhibition at 1000 µM: read-out: inhibition of [125I]APNEA binding
T1 sequence (P28647 1-320): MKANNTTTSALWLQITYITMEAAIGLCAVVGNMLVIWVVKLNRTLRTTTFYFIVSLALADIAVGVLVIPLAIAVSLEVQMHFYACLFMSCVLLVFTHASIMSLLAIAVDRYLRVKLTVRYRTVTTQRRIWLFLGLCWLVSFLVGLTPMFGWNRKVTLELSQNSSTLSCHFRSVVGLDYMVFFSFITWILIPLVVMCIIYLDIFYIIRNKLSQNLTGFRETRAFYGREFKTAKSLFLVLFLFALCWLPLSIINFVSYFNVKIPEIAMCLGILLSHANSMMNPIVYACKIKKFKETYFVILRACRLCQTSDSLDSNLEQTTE
Description: FIGS. 4A and 4B illustrates competitive binding assays using stably transfected CHO cell membrane preparations.
(§1) Cell membranes were prepared as follows. COS-7 cells (transient expressors) were harvested 48 hrs after transfection, whereas CHO cells (stable expressors) were grown to confluence in 150 mm plates. Cells were washed twice with ice-cold HOB buffer [15 mM Tris-HCl (pH 7.4), 5 mM MgCl2, 1 mM EDTA] and scraped off plates with a rubber policeman. Cells were then collected by centrifugation at 1,200 rpm (xx g), resuspended in HOB buffer, transferred to a Dounce homogenizer on ice, and homogenized for 20 sec with a CorTarge homogenizer (Eberbach Inc., Ann Arbor, Mich.) at the #3 speed setting. The homogenate was then centrifuged at 2,000 rpm (xx g) for 10 min at 4° C. The supernatant was saved and the pellet resuspended in HOB buffer and subjected to a second round of homogenation. The second homogenate was centrifuged at 2000 rpm (xx g) for 10 min and the pellet was discarded. Supernatants were pooled and centrifuged at 34,000 rpm (xx g) for 45 min. These crude membrane pellets were resuspended in TEM buffer [50 mM Tris-HCl (pH 7.4), 5 mM MgCl2, 1 mM EDTA]. Adenosine deaminase (Sigma, St Louis, Mo.) was added to the membrane suspensions to a concentration of 2 Units/ml and incubated at 37° C. for 30 min. The membrane suspension was subsequently recentrifuged at 34,000 rpm (xx g) for 45 min. The resulting pellet was resuspended in TEM buffer at a protein concentration of about 1 mg/ml and stored in small aliquots at -70° C. The protein concentration was measured according to the method of Lowry et al. (1954, J. Biol. Chem. 207: 1-XXX) using bovine serum albumin as a standard.
Radioligand binding assays were carried out in duplicate in 500 μl of a solution containing (at final concentrations) 50 mM Tris-HCl (pH 7.4), 5 mM MgCl2, 1 mM EDTA, 0.025 % ascorbic acid, radioligands, and appropriate drugs. […] ([aH]XAC), [^3 H]-labeled 2-[4-(2-[(4-aminophenyl)methylcarbobylamino]ethylaminocarbonyl)ethyl)phenyl]ethylamino-5'-N-ethylcarboxamidoadenosine ([^3 H]PAPA-APEC), and [^3 H]-labeled [2-(4-(2-carboxyethyl)phenylethyamino)5'-N-ethylcarboxamidoadenosine ([^3 H]CGS21680). Receptor binding was initiated by the addition of membrane preparations in an amount equivalent to 20-100 μg protein, and carried out at 37° C. for 1 hr. Nonspecific binding was determined in the presence of 10 μM R-N^6 -phenyl-2-propyladenosine (R-PIA). After incubation, samples were filtered through glass fiber filters (Schleicher and Schuell #32) and washed three times with 4 ml ice-cold 10 mM TrisoHCl (pH 7.4). Radioactivity retained on the filters were counted using a Beckman LS6800 scintillation counter (Beckman Instruments, Palo Alto, Calif.). […] A LIGAND computer program was used for data analysis and curve fitting (Munson & Rodband, 1980, Anal. Biochem. 107: 220-225).
The A3 receptor was then characterized using competition assays between [^125 I]APNEA A3 receptor binding versus a series of other adenosine receptor ligands. Labeled APNEA was present in these assays at 0.5 nM; unlabled competitors were present at varying concentrations as shown in FIG. 4A.

A3 adenosine receptor [2] = target: T1, A3 adenosine receptor; assay: Direct radioligand binding / Scatchard analysis, stably transfected CHO cell membranes; settings: for specific, high affinity binding to the A3 receptor: radiolabeled ligands
Source text: FIG. 3 illustrates a Scatchard plot of radioligand binding assays for the A3 adenosine receptor performed with the adenosine radioligand [^125 I]APEA and membrane preparations from stably transfected CHO cells.
The entire coding region of the A3 cDNA insert from R226 was excised from pGem226 and subcloned into either the HindIII/XbaI sites of an RC-RSV expression vector (Invitrogene, San Diego, Calif.) or the HindIII/SmaI sites of pBC12BI (Cullen, 1987, Meth. Enzym. 152: 684-704). The resulting plasmids were called Rc-RSV226 and pBC226 respectively. For transient expression in COS-7 cells, pBC226 plasmid DNA was prepared in large-scale through one cycle of CsCl gradient ultracentrifugation and 45 μg pBC226 DNA were transfected into each 150mm dish of COS-7 cells according to the method of Chen and Okayama (1987, Molec. Cell Biol. 7: 2745-2752). For stable expression in CHO cells, 1 μg Rc-RSV226 plasmid DNA isolated from a small-scale preparation was purified using the Prep-A-Gene kit (Bio-Rad) and transfected into CHO cells by the CaPO4 method (Graham and van der Eb, 1973, Virol. 52: 456-463). After transfection, cells were cultured in DMEM (COS-7 cells) or F-12 (CHO cells) media supplemented with 10% fetal calf serum in a 3% CO2 atmosphere at 37° C. For stable transfection, selection was performed with neomycin (G418; SOURCE) at a concentration of 700 μg/ml; selection was started 72 hr after transfection and continued for 3 weeks. Cell colonies were screened for expression of the A3 adenosine receptor from the R226 expression vectors described herein by Northern blot hybridization of total cellular RNA with random-primed PCR226 probe (Maniatis et al., ibid.).
as §1
Radioligand binding assays were carried out in duplicate in 500 μl of a solution containing (at final concentrations) 50 mM Tris-HCl (pH 7.4), 5 mM MgCl2, 1 mM EDTA, 0.025 % ascorbic acid, radioligands, and appropriate drugs. […] ([aH]XAC), [^3 H]-labeled 2-[4-(2-[(4-aminophenyl)methylcarbobylamino]ethylaminocarbonyl)ethyl)phenyl]ethylamino-5'-N-ethylcarboxamidoadenosine ([^3 H]PAPA-APEC), and [^3 H]-labeled [2-(4-(2-carboxyethyl)phenylethyamino)5'-N-ethylcarboxamidoadenosine ([^3 H]CGS21680). Receptor binding was initiated by the addition of membrane preparations in an amount equivalent to 20-100 μg protein, and carried out at 37° C. for 1 hr.

A3 adenosine receptor [3] = target: T1, A3 adenosine receptor; assay: cell-based; format: cell-based; settings: for effect on forskolin-stimulated cAMP: 100 μM ATP or ADP; for inhibitory effect of R-PIA and NECA on forskolin-stimulated cAMP production after pertussis toxin pretreatment: 100 ng/ml pertussis toxin, 18 hours
Description: The concentrations of adenosine agonists used are 100 nM and the concentration of forskolin is 1 μM. Values are obtained from triplicate plates and shown as mean ±S.E.
The cell were not or pretreated with 100 ng/ml pertussis toxin for 18 hours. The concentration of forskolin and adenosine agonists used are as in FIG. 5.
It is known that the A 1 adenosine receptor inhibits adenylate cyclase activity and the A2 adenosine receptor stimulates adenylate cyclase respectively (Stiles, ibid.; Williams, ibid.).
Cells were grown to about 80% confluence in 150 mm dishes, washed twice with Ca^++ and Mg^++ -free PBS buffer and detached from plates with PBS buffer containing 0.02% EDTA. Cells were collected by centrifugation at 800 rpm (xx g) for 10 min at 4° C. and resuspended in an appropriate volume of KRH buffer [140 mM NaCl, 5 mM KCl , 2 mM CaCl2, 1.2 mM MgSO4, 1.2 mM KH2 PO4, 6 mM glucose, 25 mM Hepes-NaOH (pH 7.4)]. The cells were washed once with KRH buffer and resuspended in KRH buffer at a concentration of 10^7 cells/ml. Each of 100 μl aliquots of this cell suspension were added to a glass tube containing 100 μl KRH+200 μM Ro 20-1724 and incubated at 37° C. for 10 min. Prewarmed 200 μl KRH containing 200 μm Ro 20-1724 and test drugs were then added to the cells and mixed. After incubation at 37° C. for 20 min, 400 μl 10.5 mM NaAc (pH 6.2) were added and the glass tubes transferred to a boiling water bath. The incubated cell suspension were boiled for 20 min, and the tubes were then cooled to room temperature and centrifuged at 3000 rpm (xx g) for 15 min.
For experiments using pertussis toxin pretreatment, aseptic pertussis toxin (Sigma Chemical Co., St. Louis, Mo.) was dissolved in sterile water and added to the medium to a final concentration of 100 ng/ml. Toxin treatment was maintained for approximately 18 hours. The dishes were rinsed once with media immediately prior to the addition of adenosine receptor ligands and processed as described above.

Molecule: CC(C)Cn1c(=O)n(C)c(=O)c2[nH]cnc21 [IBMX]
- ability to compete with [125I]APNEA for A3 receptor binding (A3 adenosine receptor [1]; 100 μM): none of the methylxanthines tested were capable of competing with labeled APNEA

Molecule: C[C@@H](Cc1ccccc1)Nc1ncnc2c1ncn2[C@@H]1O[C@H](CO)[C@@H](O)[C@H]1O [S-PIA]
- IC50 (A3 adenosine receptor [1]; Table I): 1140 ± 490 nM
- pharmacological profile of inhibition of [125I]APNEA binding (A3 adenosine receptor [1]): R-PIA=NECA>S-PIA>adenosine>ATP=ADP

Molecule: C[N+](C)(C)CCOC(N)=O [carbacol]
- ability to compete with [125I]APNEA for A3 receptor binding (A3 adenosine receptor [1]; 100 μM): failed to compete with labeled APNEA

Molecule: Cc1ccc(N(CC2=NCCN2)c2cccc(O)c2)cc1 [phentoamine]
- ability to compete with [125I]APNEA for A3 receptor binding (A3 adenosine receptor [1]; 100 μM): failed to compete with labeled APNEA

Molecule: CSc1nc(N)c2ncn([C@@H]3O[C@H](COP(=O)(O)O)[C@@H](O)[C@H]3O)c2n1 [2-methyl-S-AMP]
- inhibition of [125I]APNEA binding (A3 adenosine receptor [1]; 1 mM): < 20%

Molecule: Nc1nc2c(ncn2[C@@H]2O[C@H](COP(=O)(O)OP(=O)(O)NP(=O)(O)O)[C@@H](O)[C@H]2O)c(=O)[nH]1 [Gpp(NH)p]
- competition for labeled APNEA binding (A3 adenosine receptor [1]; Gpp(NH)p, varying concentrations): 60-70%
- IC50 (A3 adenosine receptor [1]; Table I and text): 1000 nM

Molecule: Nc1ccc(CCNc2ncnc3c2ncn3[C@@H]2O[C@H](CO)[C@@H](O)[C@H]2O)cc1I [APNEA, N^6-2-(4-amino-3-iodo-phenyl) ethyladenosine]
- saturable binding (Scatchard plot) (A3 adenosine receptor [2]; [125I]APNEA, stably transfected CHO membranes): 225 fmol/mg
- Kd (A3 adenosine receptor [2]; [125I]APNEA, stably transfected CHO membranes, read-out: Kd (Scatchard plot analysis)): 15.5 ± 2.4 nM
- affinity at A3 compared with other, well-characterized A1 receptors (A3 adenosine receptor [2]; comparison with literature A1 receptors (Stiles et al., 1985)): about ten-fold lower
- specific, high affinity binding to the A3 receptor (A3 adenosine receptor [2]; stably transfected CHO membranes): saturable and high affinity binding
- specific, high affinity binding to the A3 receptor (A3 adenosine receptor [2]; stably transfected CHO membranes, listed as [^125 I]APNEA): only adenosine receptor ligand to show specific, high affinity binding to the A3 receptor

Molecule: Nc1ncnc2c1ncn2[C@@H]1O[C@H](COP(=O)(O)OP(=O)(O)OP(=O)(O)O)[C@@H](O)[C@H]1O [ATP]
- effect on forskolin-stimulated cAMP (A3 adenosine receptor [3]): had no effect
- pharmacological profile of inhibition of [125I]APNEA binding (A3 adenosine receptor [1]): R-PIA=NECA>S-PIA>adenosine>ATP=ADP
- inhibition at 100 µM (A3 adenosine receptor [1]): 50%

Molecule: NCCc1ccc(O)c(O)c1 [dopamine]
- ability to compete with [125I]APNEA for A3 receptor binding (A3 adenosine receptor [1]; 100 μM): failed to compete with labeled APNEA

Molecule: CC(C)NCC(O)c1ccc(O)c(O)c1 (centres unmarked) [isoproterenol]
- ability to compete with [125I]APNEA for A3 receptor binding (A3 adenosine receptor [1]; 100 μM): failed to compete with labeled APNEA

Molecule: Nc1ncnc2c1ncn2[C@H]1C[C@H](O)[C@@H](CO)O1 [2-deoxyadenosine]
- inhibition at 1000 µM (A3 adenosine receptor [1]; 1 mM): < 20%

Molecule: Nc1ncnc2c1ncn2[C@@H]1O[C@H](COP(=O)(O)OP(=O)(O)O)[C@@H](O)[C@H]1O [ADP]
- effect on forskolin-stimulated cAMP (A3 adenosine receptor [3]): had no effect
- inhibition at 100 µM (A3 adenosine receptor [1]; 100 μM): 25%
- pharmacological profile of inhibition of [125I]APNEA binding (A3 adenosine receptor [1]): R-PIA=NECA>S-PIA>adenosine>ATP=ADP

Molecule: NCCc1c[nH]c2ccc(O)cc12 [serotonin]
- ability to compete with [125I]APNEA for A3 receptor binding (A3 adenosine receptor [1]; 100 μM): failed to compete with labeled APNEA

Molecule: Nc1ncnc2c1ncn2[C@@H]1O[C@H](COP(=O)(O)OP(=O)(O)NP(=O)(O)O)[C@@H](O)[C@H]1O [App(NH)p]
- inhibition at 1000 µM (A3 adenosine receptor [1]; 1 mM): < 20%

Molecule: C[C@H](Cc1ccccc1)Nc1ncnc2c1ncn2[C@@H]1O[C@H](CO)[C@@H](O)[C@H]1O [R-PIA]
- inhibitory effect of R-PIA and NECA on forskolin-stimulated cAMP production after pertussis toxin pretreatment (A3 adenosine receptor [3]): almost completely abolished
- inhibition of forskolin-stimulated cAMP accumulation (A3 adenosine receptor [3]; 1 μM forskolin, 100 nM agonist): 20-50%
- EC50 (A3 adenosine receptor [3]; Table II): 18 ± 5.6 nM
- IC50 (A3 adenosine receptor [1]; Table I): 63 ± 19 nM
- pharmacological profile of inhibition of [125I]APNEA binding (A3 adenosine receptor [1]): R-PIA=NECA>S-PIA>adenosine>ATP=ADP

Molecule: Nc1ncnc2c1ncn2[C@@H]1O[C@H](COP(=O)(O)OP(=O)(O)CP(=O)(O)O)[C@@H](O)[C@H]1O [AMP-PCP]
- inhibition at 1000 µM (A3 adenosine receptor [1]): < 20%

Molecule: O=c1ccn([C@@H]2O[C@H](COP(=O)(O)OP(=O)(O)OP(=O)(O)O)[C@@H](O)[C@H]2O)c(=O)[nH]1 [UTP]
- inhibition at 1000 µM (A3 adenosine receptor [1]; 1 mM): < 20%

Molecule: pertussis toxin
- inhibitory effect of R-PIA and NECA on forskolin-stimulated cAMP production after pertussis toxin pretreatment (A3 adenosine receptor [3]): almost completely abolished
